Earlier results on six compounds are cited in PMC11705955, “Lack of activity of HIV-1 integrase strand-transfer inhibitors on recombinase activating gene (RAG) activity at clinically relevant concentrations” (Microbiology Spectrum, 2024).

Molecules are shown by their SMILES.

The target of data set [1] is recombinant HIV-1 integrase. The settings on record: read-out: Target IC50 for integrase; cited from earlier work.
The conditions of data set [2]: cited from earlier work; for Human clinical free Cmax: Cmax corrected for protein binding.
For data set [3] the following is noted: clinical concentrations; cited from earlier work.
Another data set concerns RAG1/RAG2. The settings on record: cited from earlier work; for Effect on RAG binding or cleavage at the RSS: EVG 50–200 μM, RAL up to 200 µM.
The test system of a further data set is immunological competence. Set-up: method as in PMID 22790968. The settings on record: TCR Vβ usage by flow cytometry and T cell-dependent antibody response; cited from earlier work.
In a further data set the target is RAG1. To be noted: biolayer interferometry; read-out: Dissociation constant from RAG1; cited from earlier work.
The next data set concerns T or B cells. To be noted: cited from earlier work.
For a further data set, the system named is murine RAG1/RAG2. Set-up: method as in PMID 11756686. To be noted: read-out: IC50 on RAG1/RAG2 in vitro; cited from earlier work.

Take `O=C(NCc1c(F)cc(F)cc1F)c1cn2c(c(O)c1=O)C(=O)N1[C@H]3CC[C@H](C3)O[C@@H]1C2` [BIC, bictegravir]: the IC50 in data set [1] is 0.0075 ± 0.0003 µM. Besides, in data set [2], the “Human clinical free Cmax” value was 34 nM.

For the compound `C[C@H]1CO[C@@H]2Cn3cc(C(=O)NCc4ccc(F)cc4F)c(=O)c(O)c3C(=O)N12` [CAB, cabotegravir], the IC50 in data set [1] is 0.003 µM. Further, in data set [2], the “Human clinical free Cmax” value is 25 nM.

A word on the Cmax: it is the maximum level reached in the sampled fluid or tissue. For the compound `C[C@@H]1CCO[C@H]2Cn3cc(C(=O)NCc4ccc(F)cc4F)c(=O)c(O)c3C(=O)N12` [DTG, dolutegravir], the “Human clinical free Cmax” value in data set [2] was 58 nM. Also, in data set [2] (at clinical dosage of Table 1 (EVG with 150 mg cobicistat)), the Cmax is 8300 nM. The Free drug fraction in data set [3] is on record as 0.70%. Also, the “Decrease of DNA binding and cleavage by RAG1” value in the data set on RAG1/RAG2 (DTG 200–500 μM) is recorded as 50%–75%. In addition, the “Impact on immunological competence in juvenile rats” value with immunological competence is on record as “no impact on immunological competence”.

`COc1cc2c(cc1Cc1cccc(Cl)c1F)c(=O)c(C(=O)O)cn2[C@H](CO)C(C)C` [EVG, elvitegravir]: the “Human clinical free Cmax” value in data set [2] was 22 nM. Also, in data set [3], the Free drug fraction is given as 0.48%. Besides, in the data set on RAG1/RAG2, the “Effect on RAG binding or cleavage at the RSS” value is reported as “inhibition of RAG cleavage at the RSS”. In addition, the Kd on RAG1 is 32.5 µM. In the data set on T or B cells, the “Effect on T or B cells in treated mice” value is given as “did not show a large decrease in T or B cells”.

On to `Cc1nnc(C(=O)NC(C)(C)c2nc(C(=O)NCc3ccc(F)cc3)c(O)c(=O)n2C)o1` [RAL, raltegravir], for which, in the data set on RAG1/RAG2, the “Effect on RAG binding or cleavage at the RSS” value is given as “no effect on binding or cleavage”.

Turning to `O=C(/C=C(\O)c1nnn[nH]1)c1c[nH]c2ccc(Cl)cc12` [p8, 5-CITEP], in the data set on murine RAG1/RAG2, the IC50 was 200 µM.
